Test results as given in patent US7771977B2, “Alkane polyol dehydrogenase” (National University Corporation Nara Institute of Science …, priority 2006, dated 2010).

Assays:
[1] = test system: Pichia ofunaensis AKU4328 cells; test: Glycerol dehydrogenation activity of glycerol-induced Pichia ofunaensis cells; format: biochemical
Text: Pichia ofunaensis AKU4328 was pre-cultured in medium containing 4 g/L of ammonium chloride, 1 g/L of phosphoric acid 2 hydrogen 1 potassium, 1 g/L of phosphoric acid 1 hydrogen 2 potassium, 0.5 g/L of magnesium sulfate 7 hydrate, 1 g/L of yeast extract, and 1% glucose. Ten hours after the initiation of the main culture in induction medium consisting of a basal medium with 1% glycerol, the cells were harvested. Since the specific activity of glycerol was 3.6 U/mg (protein), it was confirmed that the same protein as the purified enzyme obtained in Example 1 was expressed by 7%.
In relation to the measurement of the enzyme activity, a reaction mixture containing a […] ammonium chloride/ammonia buffer (pH 9.0), 100 mM glycerol, 2.0 mM NAD^+ and an enzyme solution was subjected to a reaction at 25° C.; subsequently, the change, due to NADH formation, of absorbance (molecular absorption coefficient 6,220 M^−1 ·cm^−1) at 340 nm was measured. 1 U refers to the amount of enzyme that catalyzes the formation of 1 μmol of NADH per minute. […]
The activity at this time was measured by causing a reaction mixture containing a 100 mM ammonium chloride/ammonia buffer (pH 9.0), 100 mM glycerol, 2.0 mM NAD^+ and an enzyme solution to react at 25° C., then observing the change, due to NADH formation, of absorbance (molecular absorption coefficient 6,220 M^−1·cm^−1) at 340 nm. […]

[2] = test system: alkane polyol dehydrogenase (purified enzyme); format: biochemical, Pichia ofunaensis; details: purified enzyme; substrate 100 mM; 2 mM NAD+; pH 8.0; 25° C.
Description: The reaction solutions were prepared using plural substrates with varied concentrations. Each solution contained a substrate, 2 mM NAD^+, and an enzyme, and was allowed to react in a 100 mM potassium phosphate buffer solution (pH 8.0) at 25° C. Then, changes in absorbance (molar absorption coefficient 6,220 M^−1·cm^−1) at 340 nm due to the NADH formation were measured. 1 U is defined as an enzyme amount for catalyzing 1 μmol NADH formation per minute.
The alkane polyol dehydrogenase obtained in Example 1 was utilized to measure the enzyme activities in the following manner.
1 U was defined as the amount of enzyme that catalyzes the formation of 1 μmol of NADH per minute.
Measurement was performed in the same manner as in the activity measurements described earlier in 4-1.
Such activity was measured by causing a reaction mixture containing 5 mM (R)-1,2-octanediol, 2 mM NAD^+ and enzyme to react in a 100 mM potassium phosphate buffer solution (pH 8.0) at 25° C., then observing the change, due to NADH formation, of absorbance (molecular absorption coefficient 6,220 M^−1 ·cm^−1) at 340 nm. 1 U was defined as the amount of enzyme that catalyzes the formation of 1 μmol of NADH per minute.

[3] = Enzyme activity of purification fractions with 100 mM glycerol; format: biochemical, Pichia ofunaensis; details: 2 mM NAD+, pH 8.0, 25° C., purification step
Description: The entire purification process was performed at 4° C., unless otherwise indicated. The cells (20 g wet cell weight) prepared as above in 1-1, were suspended in buffer solution A (100 mM potassium phosphate buffer solution (pH 7.0) and 1 mM dithiothreitol (hereinafter simply referred to as DTT)). The resulting suspension was mixed with 100 ml of glass beads, and disrupted with a bead beater (produced by BioSpec, Bartlesville, USA).
The obtained cell extract was allowed to adsorb to a DEAE-cellulose column (diameter 4.0 cm×height 3.5 cm, produced by Wako Pure Chemical Ind. Ltd., Osaka) that was pre-equilibrated with buffer solution A. Thereafter, the gradient of 0-1 M potassium chloride was applied to buffer solution A to elute protein at a flow rate of 1 ml/min.
The eluted active fractions were collected, and dialyzed against buffer solution A containing 40% saturated ammonium sulfate. […]
In connection with the enzyme activity, a reaction mixture containing 100 mM glycerol, 2 mM NAD^+ and enzyme was allowed to react in a 100 mM potassium phosphate buffer solution (pH 8.0) at 25° C.; subsequently, the change, due to NADH formation, of absorbance (molar absorption coefficient 6,220 M^−1·cm^−1) at 340 nm was measured and analyzed. […]

Row | Molecule | specific activity of the cells against glycerol ([1]; 1% glycerol induction, 100 mM glycerol, 2.0 mM NAD+, pH 9.0, 25° C.) | glycerol dehydrogenation activity per 1 kg of wet cell weight ([1]; per 1 kg wet cell weight) | Oxidative Activity [2] [U/mg] | Specific Activity [3] [U/mg]
1 | OCC(O)CO [Glycerol] | 3.6 U/mg (protein) | 1,300,000 U | 39.1 | –
2 | Superdex 200: purified alkane polyol dehydrogenase of Pichia ofunaensis (SEQ ID NO: 1) after Superdex 200 gel filtration (protein, listed as Pichia ofunaensis) MKGLLYYKTGDIRYSEDVEEPEILSSHDVKIRVKFCGICGTDLKEYTYEGGPLFLPKPGSSDKISGLELPLCPGHEFCGVVEEVGESVTRVKPGDRVAVEATTHCSDAVHYGVHDMELCVACKNGSPNCCTHLSFCGLGGASGGFAEKVVYGEEHMLKLPDSIPFDIGALIEPLAVAWHAVECAKFKPGSTALVLGGGPIGLATILALQGHQAGRIVCSEPACIRREYAAKFGAEVFDPSQHDDVIHELKALLPENGGFDASFDCSGVPQTFTTSIEALAPGGMAVNVAIWGDHAIDFGAMCLTYQEKTCTGSMCYTVKDFEEVINALDKGLISISKARLMITGKVNLKDGVELGFKQLIEHKETNIKILVTPDEV | – | – | – | 51
